The source of these data is patent US20180290138A1, “MICROFLUIDIC CHIP FOR SCREENING ANTICANCER DRUG RESISTANT CELLS AND USE THEREOF” (RESEARCH & BUSINESS FOUNDATION SUNGKYUNKWAN UNIVERSITY, priority 2015, published 2018).

Molecules are shown by their SMILES.

Usually IC50 stands for the midpoint of a concentration-inhibition curve. Lower therefore signals greater potency.

The test system of one test is U87-DG cells. The test is described as follows: Evaluation of anticancer drug resistance: cell viability with doxorubicin, U87-DG cells (chip cells). Format: cell-based. Particulars: Homo sapiens; U87-DG cells (chip cells) cultured with Death galaxy chip under doxorubicin gradient; 72 h culture; living cell count; non-linear regression. The text has this:
In the Death galaxy chip, for 7 days, U87 cells derived from human primary glioblastoma were exposed to an anticancer drug such as doxorubicin according to a concentration gradient, and a hexagonal microchamber array was removed from a surface of the living cells (U87-DG cells)-attached cell culture plate. The inventors trypsinized the U87-DG cells to analyze the characteristic of phenotypes thereof, collected the cells, and transferred them to a new culture plate to culture the cells in a normal growth medium (MEM) for one week.
(§1) 3,000 cells (U87 and U87-DG cells) were seeded into a 96-well plate in 200 μl of an MEM medium containing doxorubicin at various concentrations (0, 0.005, 0.01, 0.02, 0.05, 0.1, 0.2, 0.5, 0.75, and 1 μM). After seventy-two hours of culturing, the number of living cells in each well was calculated. Cell viability was calculated by dividing the number of living cells in a doxorubicin-contained well by the number of living cells in a doxorubicin-free well. After plotting a concentration of doxorubicin with respect to cell viability, IC50 was estimated through non-linear regression analysis using Graphpad Prism (GraphPad Software, Inc., La Jolla, Calif. USA).

The test system of another test is U87 cells. The test is described as follows: Evaluation of anticancer drug resistance: cell viability with doxorubicin, U87 cells (WT cells). The format is cell-based. The note with it: Homo sapiens, U-87 MG; U87 cells (WT cells) cultured in general medium; 72 h culture; living cell count; non-linear regression. As for the experimental part:
as §1

For the compound `COc1cccc2c1C(=O)c1c(O)c3c(c(O)c1C2=O)C[C@@](O)(C(=O)CO)C[C@@H]3O[C@H]1C[C@H](N)[C@H](O)[C@H](C)O1` [doxorubicin], the IC50 in the test on U87-DG cells stood at 1470 nM; with U87 cells, 50 nM.
